From BindingDB's records for doi:10.1016/0960-894X(96)00456-8 (1996) come the findings set out here.

SMILES strings stand for the structures.

This assay in a line: Compound was evaluated for inhibitory activity against herpes simplex type 2 protease (HSV-2 pr).

Compound `O=C1OC(c2ccccc2)=N[C@@]12C[C@@H]2c1ccccc1` [(1R,3R)-1,5-Diphenyl-6-oxa-4-aza-spiro[2.4]hept-4-en-7-one] came in with an IC50 of 700 nM. The value for `CC(=O)Oc1ccc([C@H]2C[C@@]23N=C(c2ccccc2)OC3=O)cc1` [Acetic acid 4-((1R,3R)-7-oxo-5-phenyl-6-oxa-4-aza-spiro[2.4]hept-4-en-1-yl)-phenyl ester] was 1200 nM.
